Measured values published in patent US20210188813A1, “EZH2 INHIBITOR AND PHARMACEUTICALLY ACCEPTABLE SALTS AND POLYMORPHIC SUBSTANCES THEREOF, AND APPLICATION OF EZH2 INHIBITOR” (SHANGHAI HAIYAN PHARMACEUTICAL TECHNOLOGY CO., LTD., priority 2018, published 2021).

Experiments:
[1] = Dynamic solubility experiment; assay type: physicochemical; conditions: for Solubility: room temperature, 24 h
Source text: The free base samples and the two crystal forms were plotted separately in the experiment.

[2] = Solid state stability experiment; assay type: physicochemical
Source text: Detected changes in crystal form and purity at 4 and 7 days.

[3] = 60° C. and 40° C./75% RH, 4 and 7 days

SMILES: CCc1c(C(=O)NCc2c(C)cc(C)[nH]c2=O)cc2c(cnn2C)c1N(CC)[C@H]1CC[C@H](N2CC(OC)C2)CC1.Cl [Crystal form A]
- Phenomenon ([1]; 0.1M HCl): clear
- Solubility ([1]; 0.1M HCl): ≥62.8 mg/mL
- Phenomenon ([1]; H2O): clear
- Solubility ([1]; H2O): ≥81.4 mg/mL
- Phenomenon ([1]; pH 4.5 buffer): clear
- Solubility ([1]; pH 4.5 buffer): ≥43.8 mg/mL
- Phenomenon ([1]; pH 6.8 buffer): clear
- Solubility ([1]; pH 6.8 buffer): ≥74.6 mg/mL
- Content (%) ([2]; 4° C. 0 d): 96.62%
- Properties ([2]; 4° C. 0 d): Dark yellow
- RRT(%) 0.86 ([2]; 4° C. 0 d): 0.21%
- RRT(%) 0.89 ([2]; 4° C. 0 d): 0.11%
- RRT(%) 0.94 ([2]; 4° C. 0 d): 0.31%
- RRT(%) 0.97 ([2]; 4° C. 0 d): 0.09%
- RRT(%) 1.04 ([2]; 4° C. 0 d): 0.42%
- RRT(%) 1.07 ([2]; 4° C. 0 d): 0.67%
- RRT(%) 1.10 ([2]; 4° C. 0 d): 0.42%
- RRT(%) 1.13 ([2]; 4° C. 0 d): 0.18%
- RRT(%) 1.15 ([2]; 4° C. 0 d): 0.38%
- RRT(%) 1.16 ([2]; 4° C. 0 d): 0.60%
- Total impurities (%) ([2]; 4° C. 0 d): 3.38%
- Content (%) ([2]; 40° C./75% RH 4 d): 96.34%
- Properties ([2]; 40° C./75% RH 4 d): Dark yellow
- RRT(%) 0.86 ([2]; 40° C./75% RH 4 d): 0.21%
- RRT(%) 0.89 ([2]; 40° C./75% RH 4 d): 0.09%
- RRT(%) 0.94 ([2]; 40° C./75% RH 4 d): 0.28%
- RRT(%) 0.97 ([2]; 40° C./75% RH 4 d): 0.09%
- RRT(%) 1.04 ([2]; 40° C./75% RH 4 d): 0.49%
- RRT(%) 1.07 ([2]; 40° C./75% RH 4 d): 0.75%
- RRT(%) 1.10 ([2]; 40° C./75% RH 4 d): 0.51%
- RRT(%) 1.13 ([2]; 40° C./75% RH 4 d): 0.19%
- RRT(%) 1.15 ([2]; 40° C./75% RH 4 d): 0.41%
- RRT(%) 1.16 ([2]; 40° C./75% RH 4 d): 0.60%
- RRT(%) 1.20 ([2]; 40° C./75% RH 4 d): 0.07%
- Total impurities (%) ([2]; 40° C./75% RH 4 d): 3.66%
- Content (%) ([2]; 40° C./75% RH 7 d): 96.60%
- Properties ([2]; 40° C./75% RH 7 d): Dark yellow
- RRT(%) 0.86 ([2]; 40° C./75% RH 7 d): 0.22%
- RRT(%) 0.89 ([2]; 40° C./75% RH 7 d): 0.09%
- RRT(%) 0.94 ([2]; 40° C./75% RH 7 d): 0.31%
- RRT(%) 0.97 ([2]; 40° C./75% RH 7 d): 0.09%
- RRT(%) 1.04 ([2]; 40° C./75% RH 7 d): 0.47%
- RRT(%) 1.07 ([2]; 40° C./75% RH 7 d): 0.75%
- RRT(%) 1.10 ([2]; 40° C./75% RH 7 d): 0.32%
- RRT(%) 1.13 ([2]; 40° C./75% RH 7 d): 0.11%
- RRT(%) 1.15 ([2]; 40° C./75% RH 7 d): 0.38%
- RRT(%) 1.16 ([2]; 40° C./75% RH 7 d): 0.59%
- Total impurities (%) ([2]; 40° C./75% RH 7 d): 3.40%
- solid state stability ([2]; 40° C./75% RH, 4 and 7 days): stable
- Content (%) ([2]; 60° C. 4 d): 85.19%
- Properties ([2]; 60° C. 4 d): Dark yellow
- RRT(%) 0.86 ([2]; 60° C. 4 d): 0.15%
- RRT(%) 0.89 ([2]; 60° C. 4 d): 0.14%
- RRT(%) 0.94 ([2]; 60° C. 4 d): 0.67%
- RRT(%) 0.97 ([2]; 60° C. 4 d): 0.56%
- RRT(%) 1.04 ([2]; 60° C. 4 d): 1.25%
- RRT(%) 1.07 ([2]; 60° C. 4 d): 10.65%
- RRT(%) 1.10 ([2]; 60° C. 4 d): 0.29%
- RRT(%) 1.13 ([2]; 60° C. 4 d): 0.08%
- RRT(%) 1.15 ([2]; 60° C. 4 d): 0.44%
- RRT(%) 1.16 ([2]; 60° C. 4 d): 0.52%
- RRT(%) 1.20 ([2]; 60° C. 4 d): 0.05%
- Total impurities (%) ([2]; 60° C. 4 d): 14.81%
- Content (%) ([2]; 60° C. 7 d): 75.90%
- Properties ([2]; 60° C. 7 d): Dark yellow
- RRT(%) 0.86 ([2]; 60° C. 7 d): 0.11%
- RRT(%) 0.89 ([2]; 60° C. 7 d): 0.07%
- RRT(%) 0.92 ([2]; 60° C. 7 d): 0.22%
- RRT(%) 0.94 ([2]; 60° C. 7 d): 0.63%
- RRT(%) 0.97 ([2]; 60° C. 7 d): 0.66%
- RRT(%) 1.04 ([2]; 60° C. 7 d): 1.28%
- RRT(%) 1.07 ([2]; 60° C. 7 d): 19.89%
- RRT(%) 1.10 ([2]; 60° C. 7 d): 0.21%
- RRT(%) 1.13 ([2]; 60° C. 7 d): 0.05%
- RRT(%) 1.15 ([2]; 60° C. 7 d): 0.38%
- RRT(%) 1.16 ([2]; 60° C. 7 d): 0.51%
- RRT(%) 1.20 ([2]; 60° C. 7 d): 0.09%
- Total impurities (%) ([2]; 60° C. 7 d): 24.10%
- change in crystal form on storage [2, 3]: the crystal form has not changed
- change of impurities ([2]; 60° C., 4 and 7 days): the impurities increase obviously

SMILES: CCc1c(C(=O)NCc2c(C)cc(C)[nH]c2=O)cc2c(cnn2C)c1N(CC)[C@H]1CC[C@H](N2CC(OC)C2)CC1.O=C(O)/C=C\C(=O)O [Crystal form B]
- Phenomenon ([1]; 0.1M HCl): clear
- Solubility ([1]; 0.1M HCl): ≥30.4 mg/mL
- Final pH ([1]; H2O): 5.06
- Phenomenon ([1]; H2O): turbid
- Solubility ([1]; H2O): 3.13 mg/mL
- Final pH ([1]; pH 4.5 buffer): 4.91
- Phenomenon ([1]; pH 4.5 buffer): clear
- Solubility ([1]; pH 4.5 buffer): ≥3.07 mg/mL
- Final pH ([1]; pH 6.8 buffer): 6.53
- Phenomenon ([1]; pH 6.8 buffer): clear
- Solubility ([1]; pH 6.8 buffer): ≥3.72 mg/mL
- Content (%) ([2]; 4° C. 0 d): 96.94%
- Properties ([2]; 4° C. 0 d): Off-white
- RRT(%) 0.86 ([2]; 4° C. 0 d): 0.19%
- RRT(%) 0.89 ([2]; 4° C. 0 d): 0.09%
- RRT(%) 0.92 ([2]; 4° C. 0 d): 0.05%
- RRT(%) 0.94 ([2]; 4° C. 0 d): 0.17%
- RRT(%) 1.04 ([2]; 4° C. 0 d): 0.51%
- RRT(%) 1.07 ([2]; 4° C. 0 d): 0.43%
- RRT(%) 1.10 ([2]; 4° C. 0 d): 0.38%
- RRT(%) 1.13 ([2]; 4° C. 0 d): 0.21%
- RRT(%) 1.15 ([2]; 4° C. 0 d): 0.40%
- RRT(%) 1.16 ([2]; 4° C. 0 d): 0.64%
- Total impurities (%) ([2]; 4° C. 0 d): 3.06%
- Content (%) ([2]; 40° C./75% RH 4 d): 96.88%
- Properties ([2]; 40° C./75% RH 4 d): Off-white
- RRT(%) 0.86 ([2]; 40° C./75% RH 4 d): 0.20%
- RRT(%) 0.89 ([2]; 40° C./75% RH 4 d): 0.08%
- RRT(%) 0.92 ([2]; 40° C./75% RH 4 d): 0.05%
- RRT(%) 0.94 ([2]; 40° C./75% RH 4 d): 0.16%
- RRT(%) 1.04 ([2]; 40° C./75% RH 4 d): 0.45%
- RRT(%) 1.07 ([2]; 40° C./75% RH 4 d): 0.40%
- RRT(%) 1.10 ([2]; 40° C./75% RH 4 d): 0.47%
- RRT(%) 1.13 ([2]; 40° C./75% RH 4 d): 0.20%
- RRT(%) 1.15 ([2]; 40° C./75% RH 4 d): 0.41%
- RRT(%) 1.16 ([2]; 40° C./75% RH 4 d): 0.63%
- RRT(%) 1.20 ([2]; 40° C./75% RH 4 d): 0.07%
- Total impurities (%) ([2]; 40° C./75% RH 4 d): 3.12%
- Content (%) ([2]; 40° C./75% RH 7 d): 96.95%
- Properties ([2]; 40° C./75% RH 7 d): Off-white
- RRT(%) 0.86 ([2]; 40° C./75% RH 7 d): 0.25%
- RRT(%) 0.89 ([2]; 40° C./75% RH 7 d): 0.07%
- RRT(%) 0.92 ([2]; 40° C./75% RH 7 d): 0.05%
- RRT(%) 0.94 ([2]; 40° C./75% RH 7 d): 0.16%
- RRT(%) 1.04 ([2]; 40° C./75% RH 7 d): 0.45%
- RRT(%) 1.07 ([2]; 40° C./75% RH 7 d): 0.41%
- RRT(%) 1.10 ([2]; 40° C./75% RH 7 d): 0.44%
- RRT(%) 1.13 ([2]; 40° C./75% RH 7 d): 0.20%
- RRT(%) 1.15 ([2]; 40° C./75% RH 7 d): 0.41%
- RRT(%) 1.16 ([2]; 40° C./75% RH 7 d): 0.63%
- Total impurities (%) ([2]; 40° C./75% RH 7 d): 3.05%
- Content (%) ([2]; 60° C. 4 d): 97.34%
- Properties ([2]; 60° C. 4 d): Off-white
- RRT(%) 0.86 ([2]; 60° C. 4 d): 0.14%
- RRT(%) 0.89 ([2]; 60° C. 4 d): 0.06%
- RRT(%) 0.94 ([2]; 60° C. 4 d): 0.26%
- RRT(%) 1.04 ([2]; 60° C. 4 d): 0.36%
- RRT(%) 1.07 ([2]; 60° C. 4 d): 0.43%
- RRT(%) 1.10 ([2]; 60° C. 4 d): 0.32%
- RRT(%) 1.13 ([2]; 60° C. 4 d): 0.13%
- RRT(%) 1.15 ([2]; 60° C. 4 d): 0.39%
- RRT(%) 1.16 ([2]; 60° C. 4 d): 0.59%
- Total impurities (%) ([2]; 60° C. 4 d): 2.66%
- Content (%) ([2]; 60° C. 7 d): 97.30%
- Properties ([2]; 60° C. 7 d): Off-white
- RRT(%) 0.86 ([2]; 60° C. 7 d): 0.16%
- RRT(%) 0.89 ([2]; 60° C. 7 d): 0.05%
- RRT(%) 0.94 ([2]; 60° C. 7 d): 0.29%
- RRT(%) 1.04 ([2]; 60° C. 7 d): 0.35%
- RRT(%) 1.07 ([2]; 60° C. 7 d): 0.44%
- RRT(%) 1.10 ([2]; 60° C. 7 d): 0.29%
- RRT(%) 1.13 ([2]; 60° C. 7 d): 0.13%
- RRT(%) 1.15 ([2]; 60° C. 7 d): 0.40%
- RRT(%) 1.16 ([2]; 60° C. 7 d): 0.60%
- Total impurities (%) ([2]; 60° C. 7 d): 2.70%
- change in crystal form on storage [2, 3]: the crystal form has not changed
- solid state stability [2, 3]: good stability
